Entries after “also recorded” stand apart in the source; their conditions may differ.
How the values were obtained:
Beagle dogs [1] = experiment: Dog study: pulmonary and systemic hemodynamics, hypoxic pulmonary vasoconstriction; assay type: in vivo; conditions: for MPAP and PVR during hypoxia (words): iv bolus + continuous infusion (AZ, benzolamide 2 mg/kg + 2 mg/kg/h; ethoxzolamide 1 mg/kg + 1 mg/kg/h)
Method: (§1) A total of 30 experiments were performed on six female Beagle dogs (body wt 14.3±0.3 kg). The dogs were kept under highly standardized conditions and received a standardized diet five days before the experiments. The preparation and catheterization of the conscious dog were performed according to former experiments as in Höhne C., et al., J Appl Physiol (2004), which is hereby incorporated by reference in its entirety. To permit spontaneous breathing through a low resistance circuit, a face mask was attached, which enclosed the dog's snout in a leak proof fashion. This custom made mask is equipped with a 2.5 cm ID connector to connect it to a ventilator set to CPAP mode (3 4 cmH20) (Servo900C; Siemens-Elema, Erlangen/Germany).
(§2) Six dogs were studied in five different protocols in randomized order:
(§3) 4) Benzolamide intravenously: Bolus (2 mg/kg), followed by a continuous infusion of 2 mg·kg^−1·h^−1, a dosage which inhibits only renal and vascular endothelial extracellular CA, without affecting red cell CA as in Travis D. M., et al. J Pharmacol Exp Ther (1964), which is hereby incorporated by reference in its entirety. 5) Ethoxzolamide (Sigma-Aldrich, Steinheim/Germany) intravenously: Bolus ethoxzolamide (1 mg/kg), followed by a continuous infusion of 1 mg·kg^−1·h^−1.
(§4) In control experiments, the dogs breathed room air (21% O2, 79% N2; normoxia) for one hour, followed by breathing a gas mixture containing 10% O2 and 90% N2 for two hours (hypoxia). The time course was the same for the CA inhibitor experiments, but F1O2 was reduced to 0.09 during the hypoxia period to match the arterial and alveolar PO2 of the control dogs, which otherwise would have been higher on 10% O2 as a result of the known ventilatory stimulant effect of all CA inhibitors. See Höhne C., et al., J Appl Physiol 97:515-521 (2004), which is hereby incorporated by reference in its entirety. The hemodynamic measurements (arterial blood pressure, heart rate, central venous pressure, pulmonary artery pressure, pulmonary capillary wedge pressure), minute ventilation, renal function data, time points for blood samples for blood gases, actual bicarbonate, base excess, plasma electrolytes and hormones, measurements of plasma and urinary values were according to former studies. See Höhne C., et al., J Appl Physiol 90:1842-1848 (2001), which is hereby incorporated by reference in its entirety.
(§5) Values are given as means±SEM (n=6). For intra-group comparisons a general linear model of analysis of variance (GLM-ANOVA) for repeated measures was applied (NCSS97/PASS 2000, Saugus/MA, USA). Post-hoc testing of means was performed with Student's t-test. Level of significance for error of first order was adjusted according to Holm's procedure. Statistical significance was assumed at p<0.05.

Beagle dogs [2] = experiment: Dog study: plasma hormones, electrolytes and renal function; assay type: in vivo; conditions: for plasma renin activity: both acetazolamide protocols (iv, po)
Method: as §1, §2, §3, §4, §5

[3] = iv bolus + continuous infusion, hypoxia 2nd h
[4] = iv bolus + continuous infusion, hypoxia 3rd h
[5] = iv bolus + continuous infusion, normoxia 1st h
[6] = po 5 mg/kg 12 and 1 hr before, hypoxia 2nd h
[7] = po 5 mg/kg 12 and 1 hr before, hypoxia 3rd h
[8] = po 5 mg/kg 12 and 1 hr before, normoxia 1st h

**Q.** For CCOc1ccc2nc(S(N)(=O)=O)sc2c1 [EZ, ethoxzolamide], which “MPAP and PVR during hypoxia (words)” value (Beagle dogs [1]) is on record?
**A.** increased; also recorded: did not prevent

**Q.** What about the “CO, cardiac output” value (Beagle dogs [1]; [3]) of the same compound?
**A.** 2.9 ± 0.2 L/min

**Q.** And the “CVP, central venous pressure” value (Beagle dogs [1]; [3])?
**A.** 2.5 ± 0.2 cmH2O

**Q.** What about the “HR, heart rate” value (Beagle dogs [1]; [3]) of the same compound?
**A.** 104 ± 6 beats/min

**Q.** What about the “MAP, mean arterial pressure” value (Beagle dogs [1]; [3]) of the same compound?
**A.** 104 ± 7 mmHg

**Q.** And the “MPAP, mean pulmonary arterial pressure” value (Beagle dogs [1]; [3])?
**A.** 17 ± 1 mmHg

**Q.** And the “PCWP, pulmonary capillary wedge pressure” value (Beagle dogs [1]; [3])?
**A.** 4.0 ± 0.5 cm H2O

**Q.** What about the “SVR, systemic vascular resistance” value (Beagle dogs [1]; [3]) of the same compound?
**A.** 2745 ± 154 dyn · s^1 · cm^−5

**Q.** What about the “CO, cardiac output” value (Beagle dogs [1]; [4]) of the same compound?
**A.** 2.9 ± 0.3 L/min

**Q.** And the “CVP, central venous pressure” value (Beagle dogs [1]; [4])?
**A.** 2.5 ± 0.2 cmH2O

**Q.** And the “HR, heart rate” value (Beagle dogs [1]; [4])?
**A.** 106 ± 4 beats/min

**Q.** And the “MAP, mean arterial pressure” value (Beagle dogs [1]; [4])?
**A.** 101 ± 1 mmHg

**Q.** And the “MPAP, mean pulmonary arterial pressure” value (Beagle dogs [1]; [4])?
**A.** 16 ± 1 mmHg

**Q.** And the “PCWP, pulmonary capillary wedge pressure” value (Beagle dogs [1]; [4])?
**A.** 3.5 ± 0.3 cm H2O

**Q.** And the “SVR, systemic vascular resistance” value (Beagle dogs [1]; [4])?
**A.** 3270 ± 380 dyn · s^1 · cm^−5

**Q.** And the “CO, cardiac output” value (Beagle dogs [1]; [5])?
**A.** 2.8 ± 0.2 L/min

**Q.** And the “CVP, central venous pressure” value (Beagle dogs [1]; [5])?
**A.** 2.3 ± 0.2 cmH2O

**Q.** What about the “HR, heart rate” value (Beagle dogs [1]; [5]) of the same compound?
**A.** 77 ± 4 beats/min

**Q.** And the “MAP, mean arterial pressure” value (Beagle dogs [1]; [5])?
**A.** 96 ± 2 mmHg

**Q.** And the “MPAP, mean pulmonary arterial pressure” value (Beagle dogs [1]; [5])?
**A.** 11 ± 1 mmHg

**Q.** What about the “PCWP, pulmonary capillary wedge pressure” value (Beagle dogs [1]; [5]) of the same compound?
**A.** 3.8 ± 0.2 cm H2O

**Q.** What about the “PVR, pulmonary vascular resistance” value (Beagle dogs [1]; [5]) of the same compound?
**A.** 221 ± 21 dyn · s^−1 · cm^−5

**Q.** And the “SVR, systemic vascular resistance” value (Beagle dogs [1]; [5])?
**A.** 2784 ± 200 dyn · s^1 · cm^−5

**Q.** And the “plasma renin activity during hypoxia” value (Beagle dogs [2]; iv bolus + continuous infusion)?
**A.** did not change

**Q.** What about the “GFR, glomerular filtration rate” value (Beagle dogs [2]; [3]) of the same compound?
**A.** 3.1 ± 0.2 mL/min/kg

**Q.** And the “PK, plasma potassium concentration” value (Beagle dogs [2]; [3])?
**A.** 2.8 ± 0.1 mM

**Q.** And the “UV, urine volume” value (Beagle dogs [2]; [3])?
**A.** 0.072 ± 0.022 mL/min/kg

**Q.** What about the “GFR, glomerular filtration rate” value (Beagle dogs [2]; [4]) of the same compound?
**A.** 3.2 ± 0.2 mL/min/kg

**Q.** And the “PK, plasma potassium concentration” value (Beagle dogs [2]; [4])?
**A.** 2.7 ± 0.1 mM

**Q.** What about the “UV, urine volume” value (Beagle dogs [2]; [4]) of the same compound?
**A.** 0.045 ± 0.006 mL/min/kg

**Q.** What about the “GFR, glomerular filtration rate” value (Beagle dogs [2]; [5]) of the same compound?
**A.** 3.2 ± 0.2 mL/min/kg

**Q.** And the “PK, plasma potassium concentration” value (Beagle dogs [2]; [5])?
**A.** 3.1 ± 0.1 mM

**Q.** What about the “UV, urine volume” value (Beagle dogs [2]; [5]) of the same compound?
**A.** 0.052 ± 0.009 mL/min/kg

**Q.** What does the source list for CC(=O)Nc1nnc(S(N)(=O)=O)s1 [AZ, acetazolamide]?
**A.** MPAP and PVR during hypoxia (words) (Beagle dogs [1]): did not change; MPAP and PVR during hypoxia (words) (Beagle dogs [1]; listed as acetazolamide): still inhibited; CO, cardiac output (Beagle dogs [1]; [3]): 2.6 ± 0.2 L/min; CVP, central venous pressure (Beagle dogs [1]; [3]): 2.6 ± 0.6 cmH2O; HR, heart rate (Beagle dogs [1]; [3]): 92 ± 9 beats/min; MAP, mean arterial pressure (Beagle dogs [1]; [3]): 109 ± 7 mmHg; MPAP, mean pulmonary arterial pressure (Beagle dogs [1]; [3]): 15 ± 1 mmHg; PCWP, pulmonary capillary wedge pressure (Beagle dogs [1]; [3]): 3.5 ± 0.3 cm H2O; SVR, systemic vascular resistance (Beagle dogs [1]; [3]): 3348 ± 260 dyn · s^1 · cm^−5; CO, cardiac output (Beagle dogs [1]; [4]): 2.4 ± 0.1 L/min; CVP, central venous pressure (Beagle dogs [1]; [4]): 1.8 ± 0.5 cmH2O; HR, heart rate (Beagle dogs [1]; [4]): 98 ± 8 beats/min; MAP, mean arterial pressure (Beagle dogs [1]; [4]): 111 ± 6 mmHg; MPAP, mean pulmonary arterial pressure (Beagle dogs [1]; [4]): 14 ± 1 mmHg; PCWP, pulmonary capillary wedge pressure (Beagle dogs [1]; [4]): 3.3 ± 0.2 cm H2O; SVR, systemic vascular resistance (Beagle dogs [1]; [4]): 3675 ± 241 dyn · s^1 · cm^−5; CO, cardiac output (Beagle dogs [1]; [5]): 2.4 ± 0.2 L/min; CVP, central venous pressure (Beagle dogs [1]; [5]): 1.8 ± 0.3 cmH2O; HR, heart rate (Beagle dogs [1]; [5]): 70 ± 5 beats/min; MAP, mean arterial pressure (Beagle dogs [1]; [5]): 97 ± 4 mmHg; MPAP, mean pulmonary arterial pressure (Beagle dogs [1]; [5]): 14 ± 0 mmHg; PCWP, pulmonary capillary wedge pressure (Beagle dogs [1]; [5]): 3.5 ± 0.6 cm H2O; SVR, systemic vascular resistance (Beagle dogs [1]; [5]): 3347 ± 260 dyn · s^1 · cm^−5; PVR during hypoxia (Beagle dogs [1]; po 5 mg/kg 12 and 1 hr before): did not change; MPAP during hypoxia (Beagle dogs [1]; po 5 mg/kg 12 and 1 hr before, after 2 hrs of hypoxia): increased slightly; CO, cardiac output (Beagle dogs [1]; [6]): 2.8 ± 0.2 L/min; CVP, central venous pressure (Beagle dogs [1]; [6]): 1.5 ± 0.2 cmH2O; HR, heart rate (Beagle dogs [1]; [6]): 101 ± 9 beats/min; MAP, mean arterial pressure (Beagle dogs [1]; [6]): 110 ± 5 mmHg; MPAP, mean pulmonary arterial pressure (Beagle dogs [1]; [6]): 17 ± 1 mmHg; PCWP, pulmonary capillary wedge pressure (Beagle dogs [1]; [6]): 3.3 ± 0.3 cm H2O; SVR, systemic vascular resistance (Beagle dogs [1]; [6]): 3238 ± 326 dyn · s^1 · cm^−5; CO, cardiac output (Beagle dogs [1]; [7]): 2.7 ± 0.3 L/min; CVP, central venous pressure (Beagle dogs [1]; [7]): 1.3 ± 0.2 cmH2O; HR, heart rate (Beagle dogs [1]; [7]): 103 ± 7 beats/min; MAP, mean arterial pressure (Beagle dogs [1]; [7]): 108 ± 7 mmHg; MPAP, mean pulmonary arterial pressure (Beagle dogs [1]; [7]): 17 ± 2 mmHg; PCWP, pulmonary capillary wedge pressure (Beagle dogs [1]; [7]): 3.6 ± 0.4 cm H2O; SVR, systemic vascular resistance (Beagle dogs [1]; [7]): 3270 ± 380 dyn · s^1 · cm^−5; CO, cardiac output (Beagle dogs [1]; [8]): 2.5 ± 0.2 L/min; CVP, central venous pressure (Beagle dogs [1]; [8]): 2.0 ± 0.3 cmH2O; HR, heart rate (Beagle dogs [1]; [8]): 78 ± 5 beats/min; MAP, mean arterial pressure (Beagle dogs [1]; [8]): 99 ± 1 mmHg; MPAP, mean pulmonary arterial pressure (Beagle dogs [1]; [8]): 12 ± 1 mmHg; PCWP, pulmonary capillary wedge pressure (Beagle dogs [1]; [8]): 3.5 ± 0.3 cm H2O; SVR, systemic vascular resistance (Beagle dogs [1]; [8]): 3301 ± 320 dyn · s^1 · cm^−5; plasma renin activity (Beagle dogs [2]; hypoxia): 5 to 5.6 ng/mL/h; plasma renin activity (Beagle dogs [2]; normoxia): 2.9 to 3.2 ng/mL/h; reduction of glomerular filtration rate vs controls (Beagle dogs [2]; iv 2 mg/kg + 2 mg/kg/h, non-significant): 12%; GFR, glomerular filtration rate (Beagle dogs [2]; [3]): 3.3 ± 0.1 mL/min/kg; PK, plasma potassium concentration (Beagle dogs [2]; [3]): 2.8 ± 0.1 mM; UV, urine volume (Beagle dogs [2]; [3]): 0.161 ± 0.022 mL/min/kg; GFR, glomerular filtration rate (Beagle dogs [2]; [4]): 3.4 ± 0.2 mL/min/kg; PK, plasma potassium concentration (Beagle dogs [2]; [4]): 2.8 ± 0.1 mM; UV, urine volume (Beagle dogs [2]; [4]): 0.071 ± 0.01 mL/min/kg; GFR, glomerular filtration rate (Beagle dogs [2]; [5]): 3.4 ± 0.1 mL/min/kg; PK, plasma potassium concentration (Beagle dogs [2]; [5]): 3.0 ± 0.1 mM; UV, urine volume (Beagle dogs [2]; [5]): 0.099 ± 0.013 mL/min/kg; GFR, glomerular filtration rate (Beagle dogs [2]; [6]): 3.4 ± 0.3 mL/min/kg; PK, plasma potassium concentration (Beagle dogs [2]; [6]): 2.9 ± 0.1 mM; UKV, urinary potassium concentration (Beagle dogs [2]; [6]): 1.6 ± 0.3 µmol/min/kg; UV, urine volume (Beagle dogs [2]; [6]): 0.083 ± 0.024 mL/min/kg; urinary excretion rate (potassium in 2.2, sodium in 2.3) (Beagle dogs [2]; [6]): 1.6 ± 0.3 µmol/min/kg; GFR, glomerular filtration rate (Beagle dogs [2]; [7]): 3.3 ± 0.2 mL/min/kg; PK, plasma potassium concentration (Beagle dogs [2]; [7]): 2.9 ± 0.1 mM; UKV, urinary potassium concentration (Beagle dogs [2]; [7]): 1.6 ± 0.4 µmol/min/kg; UV, urine volume (Beagle dogs [2]; [7]): 0.048 ± 0.011 mL/min/kg; urinary excretion rate (potassium in 2.2, sodium in 2.3) (Beagle dogs [2]; [7]): 1.3 ± 0.1 µmol/min/kg; GFR, glomerular filtration rate (Beagle dogs [2]; [8]): 3.1 ± 0.2 mL/min/kg; PK, plasma potassium concentration (Beagle dogs [2]; [8]): 2.9 ± 0.1 mM; UV, urine volume (Beagle dogs [2]; [8]): 0.057 ± 0.011 mL/min/kg

— patent US8614236B2 (University of Washington, priority 2006, dated 2013)
